The conditions of data set [1]: Li et al. 2003, Li et al. 2004; cited from earlier work.

Where two headings read alike, the source gives them in different places.

Take `Nc1cc([C@H]2C[C@H](O)[C@@H](CO)O2)c2cc(F)ccc2n1` [antiAT-F, 2-amino-6-fluoro-4-(2′-deoxy-β-D-ribofuranosyl)-quinoline]: where the note is “NaOAc buffer, pH 4.602-8.322, UV absorbance at 235 nm or fluorescence emission vs pH”, the pKa is reported as 6.7. Besides, the “fraction of antiAT-F protonated” value (pH 8.0) was “approximately 2%”.
Regarding `Nc1cc([C@H]2C[C@H](O)[C@@H](CO)O2)c2ccccc2n1` [antiGC, 2-amino-4-(2′-deoxy-β-D-ribofuranosyl) quinoline], the pKa in data set [1] is given as 7.2.
Turning to `Nc1nc([C@H]2C[C@H](O)[C@@H](CO)O2)c2ccccc2n1` [antiAT, 2-amino-4-(2′-deoxy-β-D-ribofuranosyl)quinazoline], the pKa in data set [1] is recorded as 4.8.

What is called pKa is the pH at which an ionisable group is half protonated.

These data come from patent US7449571B2, “Halogenated aminoquinolines and oligonucleotides containing the same” (Board of Regents of the University of Nebraska, priority 2005, dated 2008).
